In the test the test system is ASS1^KO B16F10 cells. It counts as cell-based, murine.

“Also recorded” adds a separate entry of the source.

For the compound `NC(=NCCCC(N)C(=O)O)NC(CC(=O)O)C(=O)O` (centres unmarked) [argininosuccinate], the “rescue of MYXV replication by supplement” value is listed as “support myxoma virus replication; also recorded: remained rescuable”.

Regarding `NC(=O)NCCC[C@H](N)C(=O)O` [citrulline, L-Citrulline], the “rescue of MYXV replication by supplement” value was “not able to divide or support myxoma virus replication; also recorded: could no longer be rescued”.

For the origin of these results see patent US20240316130A1 (priority 2023, published 2024).
